Results from patent publication US9101611B1, “Use of sulfonylurea (Glimepiride) to lower blood glucose” (priority 2014, dated 2015).

Assay: Stopping Glimepiride tablets after secondary failure, then resuming; effect on blood glucose
Assay type: in vivo, human
Conditions: then resumed
From the text: From new research, I found a new usage of sulfonylurea drug Glimepiride when secondary failure occurs. […] It is likely that recovery works because stopping taking the drug fools the human body to assume like the first day taking it which it is claimed.
Since pre-diabetes and/or diabetes have used sulfonylurea drugs since the mid-1950s (1), there is no new matter or invention of sulfonylurea drugs in this patent application. The newness in this patent application is the usage of sulfonylurea drug like Glimepiride that fails to work when secondary failure occurs by stopping taking the tablet for 3 or 5 days which automatically also lower blood glucose and then resuming taking it that works like the first day taking it. In essence, it prevents the patient from taking more dosage of medication and/or changing to another different medication.

Q: For `CCC1=C(C)CN(C(=O)NCCc2ccc(S(=O)(=O)NC(=O)N[C@H]3CC[C@H](C)CC3)cc2)C1=O` [Glimepiride], which “effectiveness to lower blood glucose” value (tablets stopped for 3 days) is on record?
A: recovers Glimepiride's effectiveness to lower blood glucose like the first day taking it

Q: What about the recovery effectiveness (tablets stopped for 5 days) of the same molecule?
A: recovery effectiveness was first detected
